# Assay results as given in patent publication US20130203069A1, “Dynamic Assay for Maintenance and Disruption of Tissue Level Organization and Architecture” (THE REGENTS OF THE UNIVERSITY OF CALIFORNIA, priority 2012, published 2013).
# What was measured:
# [1] = test system: HMEC strain 240L (LEPs and MEPs); test: Microwell self-organization assay; type: cell-based, human; details: for self-organization of LEPs and MEPs: actomyosin inhibitors (ML-7 3×10^−6 M, Y27632 10^−5 M) added at the beginning, refreshed every 24 h, over 48 h; for organization measured at 48 h: inhibitor added a single time after 24 h, when organization was already underway; for self-organization at the 24-h time point / differences in LEP:MEP ratios in the core and at the periphery by 48 h: inhibitor added a single time at 0 h; for differences in LEP:MEP ratios in the core and at the periphery by 48 h: P<0.01
# Source text: Micropatterned substrata were made according to Tan et al. (2004) “Simple approach to micropattern cells on common culture substrates by tuning substrate wettability”. Tissue Eng 10:865-872, hereby incorporated by reference. Polydimethylsiloxane (PDMS) microwell arrays were formed by curing prepolymer with base:cure ratio of 10:1 (Sylguard 184) against a prepatterned master. The arrays of wells were peeled away and were cut into 1-cm^2 pieces that were affixed with a few microliters of uncured PDMS to the bottom of a 24-well plate (Mitek). Plates with microwells were UV oxidized for 7 min (UVO-Cleaner 42; Jelight Co.), blocked with 2 mg/mL BSA (Sigma) for 1 h under vacuum, and rinsed with PBS and M87A. All self-organizing experiments were conducted with HMEC strain 240L. Flow cytometry-sorted HMEC were stained with CM-DiI, SP-DiOC18 (Steinberg M S, (1962) On the mechanism of tissue reconstruction by dissociated cells. I. Population kinetics, differential adhesiveness, and the absence of directed migration. Proc Natl Acad Sci USA 48:1577-1582), or DiIC18(Wei C, et al., (2007) Self-organization and branching morphogenesis of primary salivary epithelial cells. Tissue Eng 13:721-735)-DS (Invitrogen), used at 1:1,000 in PBS for 5 min at 37° C. followed by 15 min at 4° C. Cells were washed extensively with medium after staining Dye-stained HMEC were mixed at a ratio of 1:1 (LEP:MEP) or 1:1 (randomly stained green:red HMEC cultures) and were resuspended in M87A at 1 million cells/mL. […] HMEC were imaged at 0, 24, or 48 h with a spinning disk confocal microscope (Carl Zeiss). Red and green fluorescence channels in images taken at the ˜25-μm z axis positions of 30 wells from each condition at each time point were binarized using the Threshold function, merged into a Z-stack, and then averaged using ImageJ software (National Institutes of Health). Gray-scaled average images corresponding to LEP and MEP were merged into a single image with red or green look-up tables applied to each average image.
# Heat maps were generated. Briefly, heat maps were normalized to the highest intensity value and were used to quantify sorting using the expression log2(mean green pixel intensity/mean red pixel intensity). A script was written using MATLAB (Mathworks) to plot differential intensity as a function of the distance from the center and to compute the average plot from θ of 0-360° (Fig S2).
# [2] = test system: MEPs; test: Atomic force microscopy measurement of stiffness (MEPs); type: cell-based, human; details: 45 cells per condition
# Protocol: (§1) Once samples were equilibrated to 25° C., cell deformity was measured, and stiffness was calculated as previously described (Alcaraz J, et al., (2008) Laminin and biomimetic extracellular elasticity enhance functional differentiation in mammary epithelia. EMBO J 27:2829-2838.). The resulting data were plotted using Prism(GraphPad Software) (n=45).
# [3] = test system: LEPs; test: Atomic force microscopy measurement of stiffness (LEPs); type: cell-based, human; details: 45 cells per condition
# Protocol: as §1
# [4] = test system: E-cadherin; test: E-cadherin surface expression on LEPs and MEPs by flow cytometry; type: cell-based, human; details: Y27632 10−5 M or ML-7 3×10−6 M in HMEC medium for 6 h
# Protocol: E-cadherin expression on LEP and MEP was measured by addition of anti-E-cadherin-A647 (clone 67A4; Biolegend) to the above mixture at 1:50.
# (§2) To determine effects of inhibitors, Y27632 at 10−5 M (Calbiochem) or ML-7 at 3×10−6 M (Calbiochem) was added to HMEC medium for 6 h at 37° C. (5% CO2) before trypsinization and subsequent measurement of E-cadherin by FACS. To measure the ability of recEcad to bind to HMEC in presence of inhibitors, cells were suspended in their medium in Falcon tubes (to prevent adhesion to a culture surface) in the presence of Y27632 at 10−5M (Calbiochem), ML-7 at 3×10−6M (Calbiochem), or anti-E-cadherin (100 μg/mL; clone HECD-1; Invitrogen), or in calcium-free medium for 6 h at 37° C. (5% CO2). recEcad conjugated to human IgG Fc region was added at 100 μg/mL for 1 h on ice. HMEC then were washed with medium and incubated with anti-human IgG-A633 (1:500; Invitrogen) in their own medium.
# [5] = test system: mouse mammary organoids; details: time-lapse imaging studies; less catastrophic than in the HMEC microwell assay; cited from earlier work
# [6] = test system: HMEC cell surfaces; test: Recombinant E-cadherin (recEcad) binding to HMEC cell surfaces by flow cytometry; type: cell-based, human; details: 6 h pretreatment/preincubation of HMEC in suspension; recEcad 100 μg/mL 1 h on ice
# Protocol: as §2
# [7] = test system: HCT116; details: HCT116 epithelial cell line (Sahai et al. 2002); cited from earlier work
# [8] = test system: MDCK; details: MDCK epithelial cell line (Sahai et al. 2002); cited from earlier work
smiles,measurement,setting,value
O=S(=O)(c1cccc2c(I)cccc12)N1CCCNCC1 [ML-7],self-organization of LEPs and MEPs,[1],prevented self-organization
same,organization measured at 48 h,[1],obliterated organization
same,self-organization at the 24-h time point,[1],prevented self-organization
same,differences in LEP:MEP ratios in the core and at the periphery by 48 h,[1],differences in LEP:MEP ratios in the core and at the periphery were observed
same,MEP stiffness,[2],unaffected
same,LEP stiffness,[3],caused softening
same,lineage-specific differences in E-cadherin expression,[4],did not change
same,bilayered organization of mouse mammary organoids,[5],disrupted the clean bilayered organization
same,recEcad binding to HMEC surfaces,[6],did not prevent
C[C@@H](N)[C@H]1CC[C@H](C(=O)Nc2ccncc2)CC1 [Y27632],self-organization of LEPs and MEPs,[1],prevented self-organization
same,organization measured at 48 h,[1],preserved the self-organized LEP cores
same,self-organization at the 24-h time point,[1],prevented self-organization
same,differences in LEP:MEP ratios in the core and at the periphery by 48 h,[1],differences in LEP:MEP ratios in the core and at the periphery were observed
same,MEP stiffness,[2],unaffected
same,LEP stiffness,[3],caused softening
same,lineage-specific differences in E-cadherin expression,[4],did not change
same,bilayered organization of mouse mammary organoids,[5],disrupted the clean bilayered organization
same,recEcad binding to HMEC surfaces,[6],did not prevent
same,breakdown and recycling of mature adherens junctions,[7],unable to break down and recycle
same,breakdown and recycling of mature adherens junctions,[8],unable to break down and recycle
